This passage reports Ki and melting point results from patent publication US8470828B2, “Anellated pyridine compounds” (Hoffmann-La Roche Inc., priority 2010, dated 2013).

SMILES strings stand for the structures.

One series has as its target human D3 receptor (Homo sapiens, UniProt P35462). Kind of series: Radioligand binding to cloned human D3 receptor expressed in HEK-293 EBNA cells ([3H]-spiperone).
The next series concerns the target T1, human D2 receptor (Homo sapiens, UniProt P14416).
T1 construct: expressed in transfected cells; host or cells: HEK293 EBNA cells, transient transfection; membrane preparation
Kind of series: Radioligand binding to cloned human D2 receptor expressed in HEK-293 EBNA cells ([3H]-spiperone). The conditions noted are these: HEK293 EBNA cell membranes, approximately 0.7 nM [3H]-spiperone, 1 h at RT.

The next series addresses human 5-HT2A receptor (Homo sapiens, UniProt P28223). Kind of series: Radioligand binding to cloned human 5-HT2A receptor expressed in HEK-293 EBNA cells ([3H]-ketanserin).

Chain of human 5-HT2A receptor (P28223 whole entry): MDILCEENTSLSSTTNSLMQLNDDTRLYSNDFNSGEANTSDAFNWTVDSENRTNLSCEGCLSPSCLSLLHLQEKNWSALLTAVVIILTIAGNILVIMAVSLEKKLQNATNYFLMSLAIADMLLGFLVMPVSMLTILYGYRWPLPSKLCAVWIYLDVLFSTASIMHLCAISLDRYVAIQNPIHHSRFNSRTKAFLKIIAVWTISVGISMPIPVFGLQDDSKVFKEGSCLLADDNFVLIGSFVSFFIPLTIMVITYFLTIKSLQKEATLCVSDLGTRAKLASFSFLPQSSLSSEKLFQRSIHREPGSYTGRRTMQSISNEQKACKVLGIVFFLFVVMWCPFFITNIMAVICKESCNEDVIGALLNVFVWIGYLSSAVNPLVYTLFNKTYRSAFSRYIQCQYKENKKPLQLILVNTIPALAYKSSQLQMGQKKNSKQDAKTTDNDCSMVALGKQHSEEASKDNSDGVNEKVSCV
Chain of human D3 receptor (P35462 whole entry): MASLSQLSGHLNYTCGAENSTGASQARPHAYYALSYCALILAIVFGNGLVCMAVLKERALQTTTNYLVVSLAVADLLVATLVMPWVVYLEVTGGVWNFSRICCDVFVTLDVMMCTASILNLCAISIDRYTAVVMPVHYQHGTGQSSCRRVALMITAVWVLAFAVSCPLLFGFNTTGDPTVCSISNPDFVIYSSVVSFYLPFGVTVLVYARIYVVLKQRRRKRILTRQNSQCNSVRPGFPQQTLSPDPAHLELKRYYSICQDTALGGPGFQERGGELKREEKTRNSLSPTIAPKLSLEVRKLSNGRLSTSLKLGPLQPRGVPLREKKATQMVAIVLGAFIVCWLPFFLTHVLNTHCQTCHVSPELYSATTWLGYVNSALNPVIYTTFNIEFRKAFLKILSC
T1 sequence (P14416 whole entry): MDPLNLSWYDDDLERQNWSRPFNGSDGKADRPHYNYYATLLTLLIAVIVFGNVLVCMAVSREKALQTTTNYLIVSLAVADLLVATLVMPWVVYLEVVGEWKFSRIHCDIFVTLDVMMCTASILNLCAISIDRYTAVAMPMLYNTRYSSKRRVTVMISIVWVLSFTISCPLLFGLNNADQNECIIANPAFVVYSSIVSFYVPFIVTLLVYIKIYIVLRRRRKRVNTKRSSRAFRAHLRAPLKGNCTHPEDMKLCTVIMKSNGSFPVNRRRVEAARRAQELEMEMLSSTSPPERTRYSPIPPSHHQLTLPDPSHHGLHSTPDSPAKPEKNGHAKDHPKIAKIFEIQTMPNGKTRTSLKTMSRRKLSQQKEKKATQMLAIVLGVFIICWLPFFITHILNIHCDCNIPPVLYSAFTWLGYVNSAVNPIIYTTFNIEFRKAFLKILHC
Procedure for human D2 receptor: (§1) HEK293 EBNA cells were transiently transfected with expression plasmids encoding for the human D2 or D3 or for the human 5-HT2A receptor, respectively. The cells were harvested 48 h post-transfection, washed three times with cold PBS and stored at −80° C. prior to use. The pellet was suspended in cold 50 mM Tris-HCl buffer comprising 10 mM EDTA (pH 7.4) and was homogenized with a Polytron (Kinematica A G, Basel, Switzerland) for 20-30 sec at 12.000 rpm. After centrifugation at 48.000×g for 30 min at 4° C., the pellet was resuspended in cold 10 mM Tris-HCl buffer comprising 0.1 mM EDTA (pH 7.4), homogenized, and centrifuged as above. This pellet was further resuspended in a smaller volume of ice cold 10 mM Tris-HCl buffer comprising 0.1 mM EDTA (pH 7.4) and homogenized with a Polytron for 20-30 sec at 12.000 rpm. The protein content of this homogenate was determined with the Bio-Rad (Bradford) Protein Assay (Biorad Laboratories GmbH, München, Germany) according to the instructions of the manufacturer using gamma globulin as the standard. This homogenate was stored at −80° C. in aliquots and thawed immediately prior to use.
(§2) Aliquots of membrane preparations were thawed at RT, resupended in assay buffer (D2, D3: 50 mM Tris-HCl, 120 mM NaCl, 5 mM MgCl2, 1 mM EDTA, 5 mM KCl, 1.5 mM CaCl2, pH=7.4; 5-HT2A: 50 mM Tris-HCl, 10 mM MgCl2, 1 mM EGTA, pH=7.4), homogenized with a Polytron for 20-30 sec at 12.000 rpm and adjusted to a final concentration of approximately 7.5 μg protein/well (D2, D3) and 15 μg protein/well (5-HT2A), respectively.
(§3) The binding affinity (Ki) of the compounds was determined using radioligand binding. Membranes were incubated in a total volume of 200 μl with a fixed concentration of radioligand (final concentration approximately 0.7 nM [^3H]-spiperone for D2, 0.5 nM [^3H]-spiperone for D3, and 1.1 nM [^3H]-ketanserin for 5-HT2A) and ten concentrations of test compound in ranging between 10 μM-0.1 nM for 1 h at RT. At the end of the incubation, the reaction mixtures were filtered on to unifilter 96-well white microplates with bonded GF/C filters (Packard BioScience, Zürich, Switzerland; preincubated for 1 h in 0.1% polyethylenimine (PEI) in assay buffer) with a Filtermate 196 harvester (Packard BioScience) and washed 3 times with cold assay buffer. The nonspecific binding was determined with equally composed reaction mixtures in the presence of 10 μM unlabelled spiperone. Per well 45 μl of Microscint 40 (Perkin Elmer, Schwerzenbach, Switzerland) was added, plates for sealed, shaken for 20 min and counted for 3 min on a Topcount Microplate Scintillation Counter (Can berra Packard S A, Zürich, Switzerland) with quenching correction.
(§4) The CPM value for each duplicate of a concentration of competing compound was averaged (y1), then the % specific binding was calculated according to the equation (((y1−non-specific)/(total binding−non-specific))×100). Graphs were plotted with the % specific binding using XLfit, a curve fitting program that iteratively plots the data using Levenberg-Marquardt algorithm. The single site competition analysis equation used was y=A+((B−A)/(1+((x/C)D))), where y is the % specific binding, A is the minimum y, B is the maximum y, C is the IC50, x is the log 10 of the concentration of the competing compound and D is the slope of the curve (the Hill Coefficient). […] The affinity constant (Ki) was calculated using the Cheng-Prusoff equation Ki=(IC50/1+([L]/Kd), where [L] is the concentration of radioligand and Kd is the dissociation constant of the radioligand at the receptor as determined by the saturation isotherm.
Procedure for human D3 receptor: as §1, §2, §3, §4

For the molecule `O=C(N[C@H]1CC[C@H](CCN2CCN(c3nccc4c3OCC4)CC2)CC1)c1ccc(N2CCS(=O)(=O)CC2)cc1` [Example 74, trans-N-(4-{2-[4-(2,3-Dihydro-furo[2,3-c]pyridin-7-yl)-piperazin-1-yl]-ethyl}-cyclohexyl)-4-(1,1-dioxo-1λ6-thiomorpholin-4-yl)-benzamide], the melting point was 260.5 °C. The molecule further displayed a Ki at human D3 receptor of 9.47 nM. The molecule also returned a Ki on human D2 receptor of 145 nM. At human 5-HT2A receptor, this molecule showed a Ki of 23.1 nM.
Molecule `O=C(Cc1noc2ccccc12)N[C@H]1CC[C@H](CCN2CCN(c3nccc4c3OCC4)CC2)CC1` [Example 75, trans-2-Benzo[d]isoxazol-3-yl-N-(4-{2-[4-(2,3-dihydro-furo[2,3-c]pyridin-7-yl)-piperazin-1-yl]-ethyl}-cyclohexyl)-acetamide] gave a melting point of 211 °C. The molecule further returned a Ki on human D3 receptor of 6.28 nM. The Ki at human D2 receptor was found to be 628 nM. On human 5-HT2A receptor, this molecule registered a Ki of 45.7 nM.
Consider `CC(C)(C)Oc1ccc(C(=O)N[C@H]2CC[C@H](CCN3CCN(c4nccc5c4OCC5)CC3)CC2)cc1` [Example 76, trans-4-tert-Butoxy-N-(4-{2-[4-(2,3-dihydro-furo[2,3-c]pyridin-7-yl)-piperazin-1-yl]-ethyl}-cyclohexyl)-benzamide], for which the melting point stood at 168.5 °C. Besides, the Ki at human D3 receptor was determined as 33.3 nM. On human D2 receptor, this molecule returned a Ki of 814 nM. At human 5-HT2A receptor, this molecule yielded a Ki of 44.3 nM.
Consider `O=C(N[C@H]1CC[C@H](CCN2CCN(c3nccc4c3OCC4)CC2)CC1)c1ccc2ncccc2c1` [Example 77, Quinoline-6-carboxylic acid trans-(4-{2-[4-(2,3-dihydro-furo[2,3-c]pyridin-7-yl)-piperazin-1-yl]-ethyl}-cyclohexyl)-amide], for which the melting point came to 211.5 °C. In addition, the Ki at human D3 receptor is 9.44 nM. The molecule also registered a Ki at human D2 receptor of 432 nM. The molecule further came in with a Ki at human 5-HT2A receptor of 35.4 nM.
`O=C(N[C@H]1CC[C@H](CCN2CCN(c3nccc4c3OCC4)CC2)CC1)c1cnc(N2CCOCC2)cn1` [Example 78, 5-Morpholin-4-yl-pyrazine-2-carboxylic acid trans-(4-{2-[4-(2,3-dihydro-furo[2,3-c]pyridin-7-yl)-piperazin-1-yl]-ethyl}-cyclohexyl)-amide] yielded a melting point of 200.5 °C. The same molecule displayed a Ki at human D3 receptor of 42.5 nM. Moreover, on human D2 receptor, affinity was put at a Ki of 670 nM. This molecule also showed a Ki on human 5-HT2A receptor of 29.6 nM.
Molecule `O=C(N[C@H]1CC[C@H](CCN2CCN(c3nccc4c3OCC4)CC2)CC1)C1(O)CCC1` [Example 79, 1-Hydroxy-cyclobutanecarboxylic acid trans-(4-{2-[4-(2,3-dihydro-furo[2,3-c]pyridin-7-yl)-piperazin-1-yl]-ethyl}-cyclohexyl)-amide] returned a melting point of 250 °C. At human D3 receptor, the inhibition constant (Ki) stood at 37.5 nM. For the same molecule, the affinity at human D2 receptor corresponds to a Ki of 623 nM. Besides, the Ki at human 5-HT2A receptor was 15.7 nM.
`CS(=O)(=O)c1ccc(C(=O)N[C@H]2CC[C@H](CCN3CCN(c4nccc5c4OCC5)CC3)CC2)s1` [Example 81, 5-Methanesulfonyl-thiophene-2-carboxylic acid trans-(4-{2-[4-(2,3-dihydro-furo[2,3-c]pyridin-7-yl)-piperazin-1-yl]-ethyl}-cyclohexyl)-amide] had a melting point of 212 °C. The molecule further showed a Ki at human D3 receptor of 12.2 nM. This molecule yielded a Ki at human D2 receptor of 362 nM. Further, the Ki on human 5-HT2A receptor turned out to be 19 nM.
The corresponding values for `O=C(CCC(F)(F)F)N[C@H]1CC[C@H](CCN2CCN(c3nccc4c3OCC4)CC2)CC1` [Example 84, trans-N-(4-{2-[4-(2,3-Dihydro-furo[2,3-c]pyridin-7-yl)-piperazin-1-yl]-ethyl}-cyclohexyl)-4,4,4-trifluoro-butyramide] are 204.5 °C, 14.2 nM, 1410 nM and 112 nM.
Take `O=C(N[C@H]1CC[C@H](CCN2CCN(c3nccc4c3OCC4)CC2)CC1)C1CC1(F)F` (stereo partly drawn) [Example 85, 2,2-Difluoro-cyclopropanecarboxylic acid trans-(4-{2-[4-(2,3-dihydro-furo[2,3-c]pyridin-7-yl)-piperazin-1-yl]-ethyl}-cyclohexyl)-amide]: the melting point came out at 227 °C. The molecule further showed a Ki at human D3 receptor of 9.89 nM. The molecule also had a Ki at human D2 receptor of 616 nM. Also, the affinity on human 5-HT2A receptor corresponds to a Ki of 60.2 nM.
In the case of `CC#CC(=O)N[C@H]1CC[C@H](CCN2CCN(c3nccc4c3OCC4)CC2)CC1` [Example 86, But-2-ynoic acid trans-(4-{2-[4-(2,3-dihydro-furo[2,3-c]pyridin-7-yl)-piperazin-1-yl]-ethyl}-cyclohexyl)-amide], the melting point came out at 176 °C. The Ki at human D3 receptor is 7.33 nM. In addition, at human D2 receptor, the Ki was 434 nM. At human 5-HT2A receptor, the Ki stood at 38.8 nM.
`C/C=C/CC(=O)N[C@H]1CC[C@H](CCN2CCN(c3nccc4c3OCC4)CC2)CC1` [Example 87, (E)-Pent-3-enoic acid trans-(4-{2-[4-(2,3-dihydro-furo[2,3-c]pyridin-7-yl)-piperazin-1-yl]-ethyl}-cyclohexyl)-amide]: the melting point worked out at 170 °C. Also, the affinity at human D3 receptor corresponds to a Ki of 6.64 nM. This molecule came in with a Ki on human D2 receptor of 939 nM. The Ki at human 5-HT2A receptor is 73.6 nM.
On to `CC(C)=CC(=O)N[C@H]1CC[C@H](CCN2CCN(c3nccc4c3OCC4)CC2)CC1` [Example 88, 3-Methyl-but-2-enoic acid trans-(4-{2-[4-(2,3-dihydro-furo[2,3-c]pyridin-7-yl)-piperazin-1-yl]-ethyl}-cyclohexyl)-amide], for which the melting point worked out at 183.5 °C. Further, the affinity at human D3 receptor corresponds to a Ki of 9.4 nM. This molecule also came in with a Ki at human D2 receptor of 201 nM. Further, the Ki on human 5-HT2A receptor was 59.5 nM.
`CC(C)(C)CC(=O)N[C@H]1CC[C@H](CCN2CCN(c3nccc4c3OCC4)CC2)CC1` [Example 89, trans-N-(4-{2-[4-(2,3-Dihydro-furo[2,3-c]pyridin-7-yl)-piperazin-1-yl]-ethyl}-cyclohexyl)-3,3-dimethyl-butyramide] returned a melting point of 193 °C. The molecule also registered a Ki on human D3 receptor of 15.1 nM. Also, the affinity at human D2 receptor, expressed as Ki, was 435 nM. On human 5-HT2A receptor, this molecule yielded a Ki of 58.8 nM.
The matching figures for `CC(C)(C)C(=O)N[C@H]1CC[C@H](CCN2CCN(c3nccc4c3OCC4)CC2)CC1` [Example 90, trans-N-(4-{2-[4-(2,3-Dihydro-furo[2,3-c]pyridin-7-yl)-piperazin-1-yl]-ethyl}-cyclohexyl)-2,2-dimethyl-propionamide]: 194.5 °C, 50.5 nM, 671 nM and 48.9 nM.
The molecule `C[C@]1(O)CC[C@H](C(=O)N[C@H]2CC[C@H](CCN3CCN(c4nccc5c4OCC5)CC3)CC2)CC1` [Example 91, trans-4-Hydroxy-4-methyl-cyclohexanecarboxylic acid trans-(4-{2-[4-(2,3-dihydro-furo[2,3-c]pyridin-7-yl)-piperazin-1-yl]-ethyl}-cyclohexyl)-amide] came in with a melting point of 172.5 °C. The molecule further came in with a Ki on human D3 receptor of 18.6 nM. On human D2 receptor, this molecule returned a Ki of 481 nM. This molecule also displayed a Ki at human 5-HT2A receptor of 32 nM.
Take `CO[C@H]1CC[C@H](CC(=O)N[C@H]2CC[C@H](CCN3CCN(c4nccc5c4OCC5)CC3)CC2)CC1` [Example 92, trans-N-(4-{2-[4-(2,3-Dihydro-furo[2,3-c]pyridin-7-yl)-piperazin-1-yl]-ethyl}-cyclohexyl)-trans-2-(4-methoxy-cyclohexyl)-acetamide]: the melting point is 188.5 °C. The same molecule registered a Ki at human D3 receptor of 12.2 nM. The same molecule showed a Ki on human D2 receptor of 1750 nM. Further, the Ki on human 5-HT2A receptor came out at 53.3 nM.
The matching figures for `C[C@]1(O)CC[C@@H](C(=O)N[C@H]2CC[C@H](CCN3CCN(c4nccc5c4OCC5)CC3)CC2)CC1` [Example 93, cis-4-Hydroxy-4-methyl-cyclohexanecarboxylic acid trans-(4-{2-[4-(2,3-dihydro-furo[2,3-c]pyridin-7-yl)-piperazin-1-yl]-ethyl}-cyclohexyl)-amide]: 219 °C, 38.4 nM, 832 nM and 30.7 nM.
As to `CN(C)C(=O)N[C@H]1CC[C@H](CCN2CCN(c3nccc4c3OCC4)CC2)CC1` [Example 94, trans-3-(4-{2-[4-(2,3-Dihydro-furo[2,3-c]pyridin-7-yl)-piperazin-1-yl]-ethyl}-cyclohexyl)-1,1-dimethyl-urea], the melting point worked out at 217.5 °C. This molecule gave a Ki at human D3 receptor of 82 nM. The molecule further registered a Ki on human D2 receptor of 429 nM. For the same molecule, the Ki on human 5-HT2A receptor is 135 nM.
`CN(C)S(=O)(=O)N[C@H]1CC[C@H](CCN2CCN(c3nccc4c3OCC4)CC2)CC1` [Example 95, N′-(trans-4-{2-[4-(2,3-Dihydro-furo[2,3-c]pyridin-7-yl)-piperazin-1-yl]-ethyl}cyclohexyl)-N,N-dimethylsulfamide] displayed a melting point of 128 °C. The molecule also showed a Ki on human D3 receptor of 10.8 nM. At human D2 receptor, this molecule came in with a Ki of 641 nM. At human 5-HT2A receptor, this molecule displayed a Ki of 31.1 nM.
`O=S(=O)(N[C@H]1CC[C@H](CCN2CCN(c3nccc4c3OCC4)CC2)CC1)c1ccc(F)cc1` [Example 96, trans-N-(4-{2-[4-(2,3-Dihydro-furo[2,3-c]pyridin-7-yl)-piperazin-1-yl]-ethyl}-cyclohexyl)-4-fluoro-benzenesulfonamide] gave a melting point of 148 °C. At human D3 receptor, this molecule returned a Ki of 5.27 nM. At human D2 receptor, this molecule had a Ki of 200 nM. In addition, on human 5-HT2A receptor, affinity was put at a Ki of 204 nM.
On to `O=C(CC1COC1)N[C@H]1CC[C@H](CCN2CCN(c3nccc4c3OCC4)CC2)CC1` [Example 98, trans-N-(4-{2-[4-(2,3-Dihydro-furo[2,3-c]pyridin-7-yl)-piperazin-1-yl]-ethyl}-cyclohexyl)-2-oxetan-3-yl-acetamide], for which the melting point worked out at 175 °C. Besides, the Ki on human D3 receptor is 4.88 nM. At human D2 receptor, this molecule displayed a Ki of 420 nM. This molecule had a Ki on human 5-HT2A receptor of 31.6 nM.

The term Ki denotes the equilibrium dissociation constant of an inhibitor or competing ligand from its target. Low values mean higher affinity, high ones lower affinity. Broadly, the melting point is the temperature, or range, at which the solid turns liquid.
